Assay results published in patent publication US11629329B2, “Bioink compositions and methods of preparing and using the same” (Wake Forest University Health Sciences, priority 2017, dated 2023).

Assays:
[1] = tested on: liver organoids; test: Recalled drug study on liver organoids (Cell-Titer Glo viability, live/dead); assay type: cell-based, human; settings: for EC50: Homo sapiens, liver organoids, 48 hours, read-out: half-maximal effective concentration (EC50), analysis of cell death
Procedure: (§1) Cryopreserved primary human hepatocytes were thawed according to manufacturer's protocol and the cells were directly used in experiments. LX2 hepatic stellate cells were trypsinized with 0.05% of trypsin (Hyclone) and counted. Forty thousand human hepatocytes and ten thousand LX2 hepatic stellate cells were suspended in 10 μl of formulation collagen gel (collagen, hyaluronic acid, and fibronectin) or without fibronectin for the formation of liver organoids. The organoids were engineered in an identical method to cell line organoid formation described above, except 24-well plates (Corning) were employed. The wells were filled with 2 mL of HCM media (Triangle Research Labs), which was replenished after collecting media aliquots for further analysis on day 4, 7 and 10 of the experiment. The organoids were cultured for 14 days.
The hepatoxic drugs bromfenac sodium, troglitazone and tienilic acid, recalled by the FDA, were chosen for this study.^12, 32 All the compounds were purchased from Sigma-Aldrich. Drugs were dissolved in DMSO (dimethyl sulfoxide) for stock concentrations of 100 mM. Concentrations of 1 μM, 10 μm, 100 μM, and 1000 μM were used for bromfenac sodium and tienilic acid. Concentrations of 1 μm, 10 μM, and 100 μM were used for troglitazone. The drug study was conducted for 48 hours in a 24 well plate at 37° C. with 5% CO2; each well in the plate containing one liver organoid in a 2 mL of media (control) or media with drug dissolved at the concentrations mentioned above (n≥6). The response of the liver organoids was assessed using Cell-Titer Glo Luminescent Cell Viability assay (Promega) prepared according to manufacturer's protocol. The results were quantified using the Veritas Microplate Luminometer setup according to manufacturer's instructions (Turner Bio Systems, Promega). Each condition was also subjected to live/dead staining (Thermo Fisher). Stained organoids were imaged using macro-confocal microscopy (Leica TCS LSI, Leica Microsystems).

[2] = tested on: liver organoids; test: cells; assay type: cell-based, human; settings: 48 hours; for EC50: liver organoids, read-out: half-maximal effective concentration (EC50), analysis of cell death
Procedure: as §1
The environmental toxins glyphosate, mercury chloride, and lead chloride were purchased from Sigma-Aldrich. Drugs were dissolved in diH2O for stock concentrations of 50 mM (glyphosate), 10 mM (mercury chloride), and 20 mM (lead chloride). Concentrations of 1 mM, 5 mM, 10 mM, and 20 mM were used for glyphosate. Concentrations of 10 μM, 20 μM, 50 μM, and 100 μM were used for mercury chloride. Concentrations of 1 mM, 2 mM, 5 mM, and 10 mM were used for lead chloride. The drug study was conducted for 48 hours (n=7) and liver organoids were assessed for viability with ATP assay and live/dead assay as described above.

[3] = tested on: LX2 hepatic stellate cells; test: Morphology of cells in HA-Collagen bioink with covalently bound laminin or fibronectin; assay type: cell-based; settings: 7 days, phalloidin and DAPI
Procedure: LX2 hepatic stellate cells were cultured within collagen or a HA-Collagen bioink with covalently bound laminin, fibronectin, or both. After 7 days, the constructs were fixed and stained with phalloidin to highlight the actin cytoskeleton of the cells and DAPI for nuclei. What is evident is that modulating laminin versus fibronectin changes the morphology and phenotype of the cells within the constructs. While not wishing to be bound to any particular theory, these changes are likely due to activation of different integrin receptors responsible for binding to collagen, laminin, and fibronectin cell adhesion motifs.

[4] = tested on: HepG2 cells; test: Cancer organoid proliferation and viability in gel formulations, HepG2; assay type: cell-based, human; settings: days 4, 7, 10
Procedure: The cells were trypsinized with 0.05% of trypsin (Hyclone) and counted. […] We chose this cell density for cancer organoid formation based on the results obtained from 3D organoid research performed in our lab.^31 The gel- cell mixture was pipetted in a well of a 48-well plate (Corning, N.Y.) that was pre-coated with 200 μl of polydimethylsiloxane (PDMS; Sylgard 184 elastomer kit, Dow Corning, Midland, Mich.) prepared according to manufacturer's protocol. The organoids were then crosslinked with UV light (Dymax BlueWave 75, Torrington, Conn.) on a high-intensity setting for 3 seconds. The wells were filled with 500 μL of media, which was replenished on day 4 and day 7 of the experiment. The organoids were maintained in culture for 10 days.
Biocompatibility of the different gel formulations was assessed in human cancer cell and liver organoids on days 4, 7, and 10 (n=3) using a standard live/dead cell viability kit (Thermo Fisher, Waltham, Mass.) according to the manufacturer's recommendation. […] Proliferation of cells within the different organoids was evaluated on days 4, 7, and 10 (n=3) by quantification of mitochondrial metabolism with a CellTiter 96® Aqueous One Solution Cell Proliferation Assay kit (Promega, Madison, Wis.) according to the manufacturer's protocol. Absorbance was quantified on a Spectramax M5 plate reader (Molecular Devices, Sunnyvale, Calif.) at 490 nm.

[5] = tested on: liver organoids; test: Liver organoids with and without fibronectin (live/dead, albumin, urea); assay type: cell-based
Procedure: as §1
Cell viability was determined by live/dead assays (Thermo Fisher) on day 7 and 14 using representative images and by quantification of biomarkers from media collected on days 4, 7, 10, and 14 (n=3): Alpha-Glutathione s-transferase (alpha-GST) is secreted by liver cells upon cell death. The secreted levels of alpha-GST by the organoids are quantified using a GST alpha assay kit (GS41, Oxford Biomedical Research; Rochester Hills, Mich.). Absorbance was read on a Spectramax M5 plate reader (Molecular Devices) at 450 nm for alpha-GST.
The secreted levels of albumin and urea of the liver organoids were quantified from media collected on days 4, 7, 10, and 14 (n=3) using a Human Albumin ELISA Kit (Abeam; Boston, Mass. ab108788) and Urea Assay Kit (Abcam, ab83362), respectively. Absorbance was read on a Spectramax M5 plate reader (Molecular Devices) at 450 nm for albumin and at 430 nm for urea.

[6] = tested on: pfHSCs; test: Cell adhesion and spreading behavior in bioink organoids with fibronectin; assay type: cell-based; settings: 16 μg per 10 μL construct
Procedure: Immobilization of fibronectin in the bioink was then verified by assessing cell adhesion and spreading behavior with pfHSCs. Fibronectin (16 μg per 10 μL construct) was added to collagen which was used to make organoids using the bioink with pfHSCs (3 million cells/mL). On days 1, 4, 7, and 10, organoids were removed from culture, fixed, and stained with phalloidin and DAPI.

[7] = tested on: liver organoids; test: Acetyl-para-aminophenol toxicity and NAC rescue in liver organoids (live/dead, albumin, alpha-GST); assay type: cell-based, human
Procedure: Drugs were dissolved in HCM media to reach the desired concentrations. […] Viability of the liver organoids was assessed using live/dead assay on day 14; albumin and alpha GST production were quantified from media collected on days 4, 7, 10, and 14, as described above.

[8] = tested on: HCT116; test: Short term 5-FU drug study on organoids (MTS, live/dead ratio); assay type: cell-based; settings: drug treated organoids vs control
Procedure: Three bioink formulations (“HA-collagen bioink”) were prepared and the viscoelastic behavior as well as cellular behavior within the material was quantified. The HA-collagen bioinks were formulated in three concentrations: 1:2, 1:3, and 1:4 (Heprasil® from Hystem-HP kit: methacrylated collagen type-1 from Advanced Biomatrix). Collagen was prepared as instructed by Advanced Biomatrix at 6 mg/mL and Heprasil® was prepared to 1% w/v with 0.1% photointiator in DiH2O and warmed to 37° C. Bioink formulations underwent rheological, cell viability, and 3D bioprinting testing conducted on the BioBots 1 device. As a comparison, tests were performed using the a Hystem-HP kit (thiolated hyaluronic acid and gelatin) made with 0.1% photointiator in DiH2O. Rheology was performed to determine shear elastic moduli G′ and 3D bioprinting was utilized to test printability of each material. Organoids were formed in 10 μL drops of bioink with […] per organoid, containing BXP3C, HCT116, Lx2, or pfHSC cell lines. Live/dead staining and picrosirus red collagen bundling analysis was performed on Lx2 and pfHSC organoids to assess viability and micro-architecture formation. A short term 5-Fluorouracil (5-FU) drug study was also conducted on HCT116 to show drug efficacy invariance between the Hystem-HP kit and 1:3 formulated bioink. […]

[9] = organoids containing fibronectin vs without

Work on Cc1c(C)c2c(c(C)c1O)CCC(C)(COc1ccc(CC3SC(=O)NC3=O)cc1)O2 (centres unmarked) [troglitazone] yielded an EC50 [1] of 6.9 µM.

With O=C(O)CNCP(=O)(O)O [glyphosate] the EC50 ([2]; Homo sapiens) was 4100 µM and the “cell death, live/dead analysis” value ([2]; at 20 mM) was “near to complete cell death”.

laminin was tested, and the “morphology and phenotype of the cells” value [3] was “epithelial nature”.

fibronectin was tested, and the “proliferation of encapsulated cells in the organoids” value [4] was “facilitated the proliferation”, the production of albumin [5, 9] was “significantly greater” and the production of urea [5, 9] was “significantly greater”. For the same compound, the “cell viability, live/dead analysis” value ([5]; with vs without fibronectin, 14 days) was “comparable cell viability”, the “cell elongation behavior earlier than in conditions without fibronectin” value [6] was 3 days and the “morphology and phenotype of the cells” value [3] was “mesenchymal”.

In the case of CC(=O)N[C@@H](CS)C(=O)O [NAC, N-Acetyl-L-cysteine], the “cell viability of liver organoids exposed to high-concentration APAP” value ([7]; 10 mM APAP with 20 mM NAC) is reported as “markedly improved cell viability”, the albumin production ([7]; APAP 10 mM co-incubated with NAC 20 mM, day 14) is reported as “partially rescued albumin production” and the alpha-GST production ([7]; APAP 10 mM with NAC 20 mM, by day 14) is reported as “noticeable decrease approaching control levels”.

In the case of [Cl][Pb][Cl] [lead chloride], the EC50 [2] is reported as 970 µM.

O=c1[nH]cc(F)c(=O)[nH]1 [5-FU, 5-Fluorouracil] was tested, and the “metabolism, MTS assay” value [8] was “lower metabolism” and the “ratio of dead cells” value [8] was “larger ratio of dead cells”.

In the case of Nc1c(CC(=O)O)cccc1C(=O)c1ccc(Br)cc1 [bromfenac sodium], the EC50 [1] is reported as 371 µM and the “cell death, live/dead analysis” value ([1]; at 1000 μM) is reported as “near to complete cell death”.

[Cl][Hg][Cl] [mercury chloride] was tested, and the EC50 [2] was 28.2 µM.

Work on O=C(O)COc1ccc(C(=O)c2cccs2)c(Cl)c1Cl [tienilic acid] yielded an EC50 [1] of 491 µM.
